According to paper PMC6712002, “Comprehensive in vitro characterization of PD-L1 small molecule inhibitors” (Scientific Reports, 2019):
pIC50: −log10 of the molar value. “Also recorded” adds a separate entry of the source. Bridge positions count the residues as written; N and C are the ends. Square brackets hold non-standard residues; d marks the D form. Peptide text beside a SMILES is read from it. NMeNle = CCCC[C@H](NC)C(=O)O; NMeA = CN[C@@H](C)C(=O)O

Legend:
PD-1/PD-L1 binding [1] = biological target: T1, PD-1/PD-L1 binding (Homo sapiens, UniProt Q9NZQ7); experiment: PD-1/PD-L1 ELISA competition assay (PD-L1 coated, biotinylated PD-1); format: biochemical; design: purchased R&D Systems (Fc-PD-L1); Acro Biosystems (biotinylated PD-1)
Target sequence in this assay (Q9NZQ7 19-239 limits assumed): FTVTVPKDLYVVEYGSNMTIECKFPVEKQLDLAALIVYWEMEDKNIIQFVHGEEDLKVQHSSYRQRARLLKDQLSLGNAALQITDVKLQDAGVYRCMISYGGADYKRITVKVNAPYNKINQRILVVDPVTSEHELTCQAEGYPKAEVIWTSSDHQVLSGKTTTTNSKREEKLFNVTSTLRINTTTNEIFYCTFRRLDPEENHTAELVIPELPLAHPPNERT

Fc-B7-1 = biological target: T2, Fc-B7-1 (Homo sapiens, UniProt P33681); experiment: SPR binding to captured Fc-B7-1 (specificity)
T2 sequence (P33681 35-242 limits assumed): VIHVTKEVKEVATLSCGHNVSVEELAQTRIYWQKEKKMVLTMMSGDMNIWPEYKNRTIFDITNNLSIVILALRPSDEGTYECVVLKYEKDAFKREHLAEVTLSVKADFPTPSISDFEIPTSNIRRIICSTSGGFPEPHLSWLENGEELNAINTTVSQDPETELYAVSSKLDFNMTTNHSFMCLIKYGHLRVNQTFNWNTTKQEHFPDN

[2] = test system: peripheral blood mononuclear cells (PBMCs); format: cell-based, human
[3] = test system: PD-1 negative Jurkat T cells; experiment: Counter-screen NFAT luciferase reporter in PD-1 negative Jurkat T cells; format: cell-based; conditions: 24.5 μM and 49 μM
Jurkat cells = experiment: Jurkat cell viability, CellTiter-Glo; format: cell-based; conditions: 24 h; for concentration significantly decreasing cell viability: vs DMSO control; for effect on cell viability: concentrations tested
HepG2 cells = experiment: HepG2 cell viability, CCK-8 assay; format: cell-based, human; conditions: HepG2, 24 h; for concentration significantly reducing cell viability / concentration without significant effect on cell viability: CCK-8; for effect on cell viability: various concentrations tested
Method: We also evaluated the acute cytotoxicity of the BMS and Aurigene compounds by testing the effects of compound treatment on the viability of HepG2 cell line. […] The purpose of using HepG2 cells, thus, would allow for evaluation of the parent molecules and potential metabolites for cytotoxicity. The cells were treated with the compounds for 24 h and then the cell viability was assessed by the CCK-8 assay (Fig. 7C).
The acute cytotoxicity of the test compounds was also evaluated by administering the test compounds to human hepatoma (HepG2) cells and assessing their viability (metabolic viability) using the CCK-8 assay (based on WST-8). HepG2 cells are commonly used in the early screening stages for new chemical entities, and the CCK-8 assay has been well established as a sensitive and reliable indicator for cellular metabolic activity (viability) for this purpose. HepG2 cells were obtained from ATCC (HB-8065; Manassas, VA) and maintained in DMEM culture medium in a water-jacketed incubator (5% CO2, 37 °C). […] At this time point, cells were treated with WST-8 based on the manufacturer’s protocol (CCK-8 kit, Dojindo Molecular Technologies, Rockville, MD). Cell viability calculations were also carried out according to the manufacturer’s protocol, which included accounting for potential interference from test compounds, and comparisons to appropriate controls. GraphPad Prism was used for data analysis and graphical representation.

CHO cells = experiment: CHO cell viability, CellTiter-Glo; conditions: 24 h; for concentration significantly reducing cell viability: vs DMSO control
PD-L1 [4] = biological target: T3, PD-L1 (Homo sapiens, UniProt Q9NZQ7); experiment: Differential scanning fluorimetry (DSF) of PD-L1; format: binding; conditions: PD-L1 10 µM, compound 50 µM
T3 construct: human PD-L1 (residues 18–134) was cloned into pET21b vector; made in house

human PD-1 protein = human PD-1 protein (Homo sapiens, UniProt Q15116); experiment: DSF of PD-1; format: binding
PD-L1 [5] = biological target: T3, PD-L1; experiment: Microscale thermophoresis (MST) binding to labeled PD-L1; conditions: labeled PD-L1 60 nM
Fc-PD-L1 = Fc-PD-L1 (Homo sapiens, UniProt Q9NZQ7); experiment: SPR binding to captured Fc-PD-L1; conditions: Fc-PD-L1 captured on Protein A chip, 25 °C
PD-L1 [6] = biological target: T3, PD-L1; experiment: 1D NMR STD and WaterLOGSY binding; conditions: 12 µM PD-L1, 200 µM compound
Method: In addition, we also employed 1D NMR-based methods, saturation transfer difference (STD) and WaterLOGSY techniques, to unambiguously rule-out the binding of Aurigene-1 to PD-L1 protein. STD and WaterLOGSY are popular ligand-based approaches to detect the binding of protein-protein inhibitors.
NMR samples contained 12 µM of protein, 200 µM of compound in 1x PBS (phosphate-buffered saline buffer, pH 7.5) and 0.25 mM 2,2-dimethyl-2-silapentane-5-sulfonate-d6 sodium salt (DSS-d6) as an NMR internal reference in 95/5% H2O/D2O or 100% D2O. […] NMR spectroscopy was performed at the Nanuc NMR Centre on a 2.2 K pumped-800 MHz Oxford magnet updated to a Bruker Neo-Advance IV console equipped with a 5 mm cryoprobe and SampleJet robotics.
Fig. S3: STD and WaterLOGSY experiments of PD-L1 binding to Aurigene-1. Blue - 1D spectrum of Aurigene-1, Red and Green -STD and WaterLOGSY spectra respectively of 12 μM of PD-L1 with 200 μM of Aurigene-1

PD-1/PD-L1 binding [7] = biological target: T1, PD-1/PD-L1 binding; experiment: PD-1/PD-L1 ELISA competition assay, reverse configuration (PD-1 coated, biotinylated PD-L1); format: biochemical; conditions: biotin tagged PD-L1
Target sequence in this assay (Q9NZQ7 19-238 limits assumed): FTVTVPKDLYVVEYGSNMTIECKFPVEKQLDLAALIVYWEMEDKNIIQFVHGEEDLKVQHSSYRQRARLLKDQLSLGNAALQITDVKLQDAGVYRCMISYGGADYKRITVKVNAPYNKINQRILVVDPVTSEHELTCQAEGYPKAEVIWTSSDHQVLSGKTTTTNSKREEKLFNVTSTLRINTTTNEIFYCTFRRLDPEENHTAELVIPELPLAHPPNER

[8] = test system: PD-1/NFAT reporter Jurkat cells co-cultured with TCR activator/PD-L1-CHO cells; experiment: Bioluminescent PD-1/PD-L1 cell-based assay (NFAT luciferase reporter)
mouse splenocytes = test system: mouse splenocytes; design: method as in earlier work; conditions: CFSE proliferation assay with recombinant PD-L1; cited from earlier work
PD-1/PD-L1 = conditions: read-out: IC50 (HTRF); original disclosure; cited from earlier work
[9] = test system: peripheral blood mononuclear cells (PBMCs); experiment: IFN-γ production by SEB-stimulated PBMCs (ELISA); format: cell-based, human
PD-1/PD-L1 interface = PD-1/PD-L1 interface (Homo sapiens, UniProt Q9NZQ7); experiment: Binding to the PD-1/PD-L1 interface (method not given)
Sequence of PD-1/PD-L1 interface (Q9NZQ7 19-290): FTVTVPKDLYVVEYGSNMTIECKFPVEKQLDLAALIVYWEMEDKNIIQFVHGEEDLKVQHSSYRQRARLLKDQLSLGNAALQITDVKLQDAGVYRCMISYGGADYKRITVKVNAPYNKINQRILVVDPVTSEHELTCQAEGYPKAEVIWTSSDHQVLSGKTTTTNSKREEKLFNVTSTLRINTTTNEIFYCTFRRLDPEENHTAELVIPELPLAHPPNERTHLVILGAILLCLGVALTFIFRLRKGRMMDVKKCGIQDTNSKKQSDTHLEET

T3 sequence (Q9NZQ7 18-134): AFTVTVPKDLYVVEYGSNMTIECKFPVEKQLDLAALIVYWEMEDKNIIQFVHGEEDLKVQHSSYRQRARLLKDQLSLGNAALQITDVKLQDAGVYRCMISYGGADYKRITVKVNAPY
Sequence of human PD-1 protein (Q15116 25-288): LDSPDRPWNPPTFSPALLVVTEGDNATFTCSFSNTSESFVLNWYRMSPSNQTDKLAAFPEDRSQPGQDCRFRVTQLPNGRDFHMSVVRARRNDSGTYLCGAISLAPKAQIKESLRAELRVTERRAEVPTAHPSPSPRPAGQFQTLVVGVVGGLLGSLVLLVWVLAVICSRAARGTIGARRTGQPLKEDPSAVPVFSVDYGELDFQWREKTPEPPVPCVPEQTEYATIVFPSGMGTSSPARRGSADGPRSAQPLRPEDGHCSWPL
Sequence of Fc-PD-L1 (Q9NZQ7 19-238 limits assumed): as the sequence (Q9NZQ7 19-238 limits assumed) above

CCCC[C@H]1C(=O)N(C)[C@@H](CCCC)C(=O)N[C@@H](CCCNC(=N)N)C(=O)N[C@H](C(=O)NCC(N)=O)CSCC(=O)N[C@@H](Cc2ccccc2)C(=O)N(C)[C@@H](C)C(=O)N[C@@H](CC(N)=O)C(=O)N2CCC[C@H]2C(=O)N[C@@H](Cc2c[nH]cn2)C(=O)N[C@@H](CC(C)C)C(=O)N[C@@H](CO)C(=O)N[C@@H](Cc2c[nH]c3ccccc23)C(=O)N[C@@H](CO)C(=O)N[C@@H](Cc2c[nH]c3ccccc23)C(=O)N1C [BMSpep-57] ({CH2CO}-F[NMeA]NPHLSWSW[NMeNle][NMeNle]RCG-NH2; thioether N-14; N-terminus and C-terminus assumed)
inhibition at 0.3 µM (PD-1/PD-L1 binding [1]; at 300 nM): 98.1%

COc1cc(OCc2cccc(-c3ccccc3)c2C)cc(OC)c1CNCCO [BMS-103]
binding with captured Fc-B7-1 (Fc-B7-1): None of the BMS inhibitors (BMSpep-57, BMS-103 and BMS-142) showed binding
IL-2 production vs positive control [2]: significantly lower levels of IL-2 than the positive control
luminescence of PD-1 negative Jurkat cells [3]: substantially low
concentration completely abolishing cell viability (Jurkat cells): ≥ 2.4 µM
concentration significantly decreasing cell viability (Jurkat cells): 0.4 µM
concentration significantly reducing cell viability (HepG2 cells): ≥ 12.2 µM
concentration without significant effect on cell viability (HepG2 cells): up to 2.4 µM
concentration significantly reducing cell viability (CHO cells): ≥ 12.2 µM

CC(O)[C@H](NC(=O)N[C@@H](CC(N)=O)c1nc([C@@H](N)CO)no1)C(=O)O (some centres unmarked) [Aurigene-1]
shift of Tm of PD-L1 (PD-L1 [4]): 0.7 ± 0.1 °C
thermal stability of PD-1 protein (human PD-1 protein): did not increase the thermal stability of PD-1 protein; also recorded: did not induce thermal stability to the human PD-1 protein
binding to PD-L1 (MST fluorescence response) (PD-L1 [5]): no change in fluorescence
Rmax (maximum binding response) (Fc-PD-L1): 0.78 ± 0.36 RU
binding to PD-L1 (STD, WaterLOGSY NMR) (PD-L1 [6]): does not bind to PD-L1 protein
inhibition of PD-1/PD-L1 binding, reverse configuration (PD-1/PD-L1 binding [7]): did not show inhibition of PD-1/PD-L1 binding
effect on IL-2 production [2]: cannot enhance IL-2 production
NFAT activity ([8]; 55.5 μM, 27.8 μM, 13.9 μM, 2.8 μM and 1.4 μM): none of these concentrations facilitated NFAT activity
effect on cell viability (Jurkat cells): did not show any effect on the cell viability
effect on cell viability (HepG2 cells): did not show any effects on the cell viability
rescue of mouse splenocyte proliferation (mouse splenocytes): 97%
inhibition of PD-1/PD-L1 binding (PD-1/PD-L1 binding [1]; 7.8 µM to 500 µM): did not inhibit the PD-1/PD-L1 binding

COc1cc(OCc2cccc(-c3ccccc3)c2C#N)cc(OC)c1CNCCO [BMS-142]
binding with captured Fc-B7-1 (Fc-B7-1): None of the BMS inhibitors (BMSpep-57, BMS-103 and BMS-142) showed binding
NFAT activity vs cells only ([8]; 12.3 μM, 2.4 μM and […]): no change in NFAT activity
NFAT activity (interaction with PD-1/PD-L1) ([8]; 24 µM and 48 µM): sometimes interacted weakly with PD-1/PD-L1, although this was not statistically significant
concentration without any effect on cell viability (Jurkat cells): up to 2.4 µM
concentration significantly decreasing cell viability (Jurkat cells): ≥ 12 µM
concentration significantly reducing cell viability (HepG2 cells): ≥ 48 µM
pIC50 (PD-1/PD-L1): 7.00 to 8.22
concentration without any effect on cell viability (CHO cells): up to 2.4 µM
concentration significantly reducing cell viability (CHO cells): ≥ 12 µM

CCCC[C@H]1C(=O)N(C)[C@@H](CCCC)C(=O)N[C@@H](CCCNC(=N)N)C(=O)N[C@H](C(=O)NCC(N)=O)CSCC(=O)N[C@@H](Cc2ccccc2)C(=O)N(C)[C@@H](C)C(=O)N[C@@H](CC(N)=O)C(=O)N2CCC[C@H]2C(=O)N[C@@H](Cc2cnc[nH]2)C(=O)N[C@@H](CC(C)C)C(=O)N[C@@H](CO)C(=O)N[C@@H](Cc2c[nH]c3ccccc23)C(=O)N[C@@H](CO)C(=O)N[C@@H](Cc2c[nH]c3ccccc23)C(=O)N1C [BMSpep-57] ({CH2CO}-F[NMeA]NPHLSWSW[NMeNle][NMeNle]RCG-NH2; thioether N-14)
effect on cell viability (Jurkat cells): did not show any effect on the cell viability
effect on cell viability (HepG2 cells): did not show any effects on the cell viability

Cc1ccc2ccccc2c1CN1CCN(c2c([N+](=O)[O-])c(=O)n(C)c3ccccc23)CC1 [Compound A]
concentration without significant effect on cell viability (HepG2 cells): ≤ 90 µM
fold IFN-γ production vs untreated cells [9]: approximately 1.2 fold
binding to the PD-1/PD-L1 interface (PD-1/PD-L1 interface): did not bind to the PD-1/PD-L1 interface
